Read-outs that look alike come from different tables or passages of the source.
Tests used:
[1] = test system: mRNA expressed from the genes (A) to (D) in rat liver; assay: Behavior of genes (mRNA expression level, oligo-DNA microarray) in rat liver after 28-day oral administration; format: in vivo
How it was run: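 Groups of four male F344 SPF rats aged 5 weeks are gavaged once a day for 28 days with test chemical in solvent or with solvent alone at equal volume. Total RNA comes from liver taken on day 28. Fold change of 1.5 or 1/1.5 versus control, directionally consistent, defines significance.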

liver = conditions: cited from earlier work
rodent = conditions: cited from earlier work
[2] = gene group (A), Unigene No. Rn.167075, mRNA vs vehicle control group
[3] = gene group (C), Unigene No. Rn.120914, mRNA vs vehicle control group

CCCCC(CC)COC(=O)CCCCC(=O)OCC(CC)CCCC (stereo not shown) [TS018, Di(2-ethylhexyl)adipate]
−: Behavior of gene caused by administration of chemical substance, Gene No. 4846 ([1]; gene group (A), Unigene No. Rn.144554, mRNA vs vehicle control group) | Behavior of gene caused by administration of chemical substance, Gene No. 2026 [1, 2] | Behavior of gene caused by administration of chemical substance, Gene No. 4218 [1, 2] | Behavior of gene caused by administration of chemical substance, Gene No. 5600 ([1]; gene group (A), Unigene No. Rn.9836, mRNA vs vehicle control group) | Behavior of gene caused by administration of chemical substance, Gene No. 725 ([1]; gene group (C), Unigene No. Rn.108075, mRNA vs vehicle control group) | Behavior of gene caused by administration of chemical substance, Gene No. 1163 ([1]; gene group (C), Unigene No. Rn.11766, mRNA vs vehicle control group) | Behavior of gene caused by administration of chemical substance, Gene No. 1334 [1, 3] | Behavior of gene caused by administration of chemical substance, Gene No. 6620 [1, 3] | Behavior of gene caused by administration of chemical substance, Gene No. 6303 ([1]; gene group (C), Unigene No. Rn.123063, mRNA vs vehicle control group) | Behavior of gene caused by administration of chemical substance, Gene No. 5878 ([1]; gene group (C), Unigene No. Rn.143213, mRNA vs vehicle control group) | Behavior of gene caused by administration of chemical substance, Gene No. 1131 ([1]; gene group (C), Unigene No. Rn.144946, mRNA vs vehicle control group) | Behavior of gene caused by administration of chemical substance, Gene No. 1562 ([1]; gene group (C), Unigene No. Rn.14744, mRNA vs vehicle control group) | Behavior of gene caused by administration of chemical substance, Gene No. 1741 ([1]; gene group (C), Unigene No. Rn.1647, mRNA vs vehicle control group) | Behavior of gene caused by administration of chemical substance, Gene No. 893 ([1]; gene group (C), Unigene No. Rn.164817, mRNA vs vehicle control group) | Behavior of gene caused by administration of chemical substance, Gene No. 6026 ([1]; gene group (C), Unigene No. Rn.167685, mRNA vs vehicle control group) | Behavior of gene caused by administration of chemical substance, Gene No. 154 ([1]; gene group (C), Unigene No. Rn.185941, mRNA vs vehicle control group) | Behavior of gene caused by administration of chemical substance, Gene No. 1993 ([1]; gene group (C), Unigene No. Rn.18728, mRNA vs vehicle control group) | Behavior of gene caused by administration of chemical substance, Gene No. 813 ([1]; gene group (C), Unigene No. Rn.201760, mRNA vs vehicle control group) | Behavior of gene caused by administration of chemical substance, Gene No. 2494 ([1]; gene group (C), Unigene No. Rn.23969, mRNA vs vehicle control group) | Behavior of gene caused by administration of chemical substance, Gene No. 2546 ([1]; gene group (C), Unigene No. Rn.24561, mRNA vs vehicle control group) | Behavior of gene caused by administration of chemical substance, Gene No. 3776 ([1]; gene group (C), Unigene No. Rn.43232, mRNA vs vehicle control group) | Behavior of gene caused by administration of chemical substance, Gene No. 3929 ([1]; gene group (C), Unigene No. Rn.4620, mRNA vs vehicle control group) | Behavior of gene caused by administration of chemical substance, Gene No. 1119 ([1]; gene group (C), Unigene No. Rn.9757, mRNA vs vehicle control group) | Behavior of gene caused by administration of chemical substance, Gene No. 6742 ([1]; gene group (C), Unigene No. Rn.9779, mRNA vs vehicle control group) | Behavior of gene caused by administration of chemical substance, Gene No. 5634 ([1]; gene group (C), Unigene No. Rn.9862, mRNA vs vehicle control group) | Behavior of gene caused by administration of chemical substance, Gene No. 5726 ([1]; gene group (D), Unigene No. Rn.9939, mRNA vs vehicle control group)
Cr−: Liver carcinogenicity (liver; classification of the substance (Cr+/Cr−))
C+: Carcinogenicity (rodent; classification of the substance (C+/C−))
+: Behavior of gene caused by administration of chemical substance, Gene No. 6182 ([1]; gene group (A), Unigene No. Rn.5834, mRNA vs vehicle control group) | Behavior of gene caused by administration of chemical substance, Gene No. 1494 ([1]; gene group (B), Unigene No. Rn.1430, mRNA vs vehicle control group) | Behavior of gene caused by administration of chemical substance, Gene No. 2045 ([1]; gene group (B), Unigene No. Rn.19329, mRNA vs vehicle control group) | Behavior of gene caused by administration of chemical substance, Gene No. 2203 ([1]; gene group (B), Unigene No. Rn.21240, mRNA vs vehicle control group) | Behavior of gene caused by administration of chemical substance, Gene No. 533 ([1]; gene group (C), Unigene No. Rn.106184, mRNA vs vehicle control group) | Behavior of gene caused by administration of chemical substance, Gene No. 4973 ([1]; gene group (C), Unigene No. Rn.118529, mRNA vs vehicle control group) | Behavior of gene caused by administration of chemical substance, Gene No. 4095 ([1]; gene group (C), Unigene No. Rn.119024, mRNA vs vehicle control group)

Cl[C@H]1[C@H](Cl)[C@H](Cl)[C@@H](Cl)[C@H](Cl)[C@H]1Cl [TS021, α-Hexachlorocyclohexane]
Cr+: Liver carcinogenicity (liver; in vivo)
+: Behavior of gene caused by administration of chemical substance, Gene No. 533 ([1]; rat, in vivo) | Behavior of gene caused by administration of chemical substance, Gene No. 813 ([1]; rat, in vivo) | Behavior of gene caused by administration of chemical substance, Gene No. 1494 ([1]; rat, in vivo) | Behavior of gene caused by administration of chemical substance, Gene No. 1741 ([1]; rat, in vivo) | Behavior of gene caused by administration of chemical substance, Gene No. 2045 ([1]; rat, in vivo) | Behavior of gene caused by administration of chemical substance, Gene No. 2203 ([1]; rat, in vivo) | Behavior of gene caused by administration of chemical substance, Gene No. 4095 ([1]; rat, in vivo) | Behavior of gene caused by administration of chemical substance, Gene No. 4973 ([1]; rat, in vivo) | Behavior of gene caused by administration of chemical substance, Gene No. 5634 ([1]; rat, in vivo) | Behavior of gene caused by administration of chemical substance, Gene No. 6182 ([1]; rat, in vivo) | Behavior of gene caused by administration of chemical substance, Gene No. 6303 ([1]; rat, in vivo) | Behavior of gene caused by administration of chemical substance, Gene No. 6742 ([1]; rat, in vivo)
−: Behavior of gene caused by administration of chemical substance, Gene No. 154 ([1]; rat, in vivo) | Behavior of gene caused by administration of chemical substance, Gene No. 725 ([1]; rat, in vivo) | Behavior of gene caused by administration of chemical substance, Gene No. 893 ([1]; rat, in vivo) | Behavior of gene caused by administration of chemical substance, Gene No. 1119 ([1]; rat, in vivo) | Behavior of gene caused by administration of chemical substance, Gene No. 1131 ([1]; rat, in vivo) | Behavior of gene caused by administration of chemical substance, Gene No. 1163 ([1]; rat, in vivo) | Behavior of gene caused by administration of chemical substance, Gene No. 1334 ([1]; rat, in vivo) | Behavior of gene caused by administration of chemical substance, Gene No. 1562 ([1]; rat, in vivo) | Behavior of gene caused by administration of chemical substance, Gene No. 1993 ([1]; rat, in vivo) | Behavior of gene caused by administration of chemical substance, Gene No. 2026 ([1]; rat, in vivo) | Behavior of gene caused by administration of chemical substance, Gene No. 2494 ([1]; rat, in vivo) | Behavior of gene caused by administration of chemical substance, Gene No. 2546 ([1]; rat, in vivo) | Behavior of gene caused by administration of chemical substance, Gene No. 3776 ([1]; rat, in vivo) | Behavior of gene caused by administration of chemical substance, Gene No. 3929 ([1]; rat, in vivo) | Behavior of gene caused by administration of chemical substance, Gene No. 4218 ([1]; rat, in vivo) | Behavior of gene caused by administration of chemical substance, Gene No. 4846 ([1]; rat, in vivo) | Behavior of gene caused by administration of chemical substance, Gene No. 5600 ([1]; rat, in vivo) | Behavior of gene caused by administration of chemical substance, Gene No. 5726 ([1]; rat, in vivo) | Behavior of gene caused by administration of chemical substance, Gene No. 5878 ([1]; rat, in vivo) | Behavior of gene caused by administration of chemical substance, Gene No. 6026 ([1]; rat, in vivo) | Behavior of gene caused by administration of chemical substance, Gene No. 6620 ([1]; rat, in vivo)
C+: Carcinogenicity (rodent; in vivo)

Reference: patent US20110039721A1, “METHOD FOR PREDICTION ABOUT CARCINOGENICITY OF SUBSTANCE IN RODENT” (Chemicals Evaluation and Research Institute, priority 2007, published 2011)
